Measured values as given in the NIST ThermoML archive (doi:10.1016/j.jct.2018.04.011).

What was measured:
[1] = Crystal; for Normal melting temperature: DTA
[2] = Molar enthalpy of transition or fusion; conditions: Crystal; DSC
[3] = molar heat capacity at constant pressure; conditions: 101.33 kPa, DSC

COC(=O)c1ccccc1O [methyl 2-hydroxybenzoate]
Conditions	Molar enthalpy of transition or fusion [kJ/mol]	Normal melting temperature [°C]
[1]	–	-1.66
[2]	16.3	–

[3], Liquid
Conditions	molar heat capacity at constant pressure [J/K/mol]
293.15 K	240.4
294.15 K	241.6
295.15 K	242.5
296.15 K	243.3
297.15 K	243.9
298.15 K	244.3
299.15 K	244.8
300.15 K	245.2
301.15 K	245.6
302.15 K	246.1
303.15 K	246.6
304.15 K	246.9
305.15 K	247.1
306.15 K	247.4
307.15 K	247.8
308.15 K	248
309.15 K	248.3
310.15 K	248.6
311.15 K	249.1
312.15 K	249.4

COC(=O)c1cccc(O)c1 [methyl 3-hydroxybenzoate]
Conditions	mass density [kg/m3]
[1], 298.15 K, 101.33 kPa, Pycnometric method	1230

Conditions	Molar enthalpy of transition or fusion [kJ/mol]	Normal melting temperature [°C]
[1]	–	71.10
[2]	20.1	–

[3], Crystal
Conditions	molar heat capacity at constant pressure [J/K/mol]
293.15 K	200.2
294.15 K	201.3
295.15 K	202.6
296.15 K	203.3
297.15 K	204.1
298.15 K	205
299.15 K	205.6
300.15 K	206.2
301.15 K	206.7
302.15 K	207.5
303.15 K	208.2
304.15 K	208.7
305.15 K	209.2
306.15 K	209.8
307.15 K	210.4
308.15 K	211
309.15 K	211.5
310.15 K	212
311.15 K	212.6
312.15 K	213.1

COC(=O)c1ccc(O)cc1 [methyl 4-hydroxybenzoate]
Conditions	Molar enthalpy of transition or fusion [kJ/mol]	Normal melting temperature [°C]
[1]	–	126
[2]	25.8	–

[3], Crystal
Conditions	molar heat capacity at constant pressure [J/K/mol]
293.15 K	209.8
294.15 K	211
295.15 K	212.2
296.15 K	212.8
297.15 K	213.6
298.15 K	214.4
299.15 K	215.2
300.15 K	215.7
301.15 K	216.2
302.15 K	217
303.15 K	217.8
304.15 K	218.4
305.15 K	218.9
306.15 K	219.3
307.15 K	220.1
308.15 K	220.6
309.15 K	221.2
310.15 K	221.7
311.15 K	222.4
312.15 K	222.8
